In BigSolDB 2.1:

CCOC(=O)C1=C(C)NC(C)=C(C(=O)OCC)C1
Conditions | solubility (mole fraction)
in 2-butanone, 272.15 K | 0.00182
in 2-butanone, 278.15 K | 0.00274
in 2-butanone, 283.15 K | 0.00382
in 2-butanone, 288.15 K | 0.00525
in 2-butanone, 293.15 K | 0.00717
in 2-butanone, 298.15 K | 0.00965
in 2-butanone, 303.35 K | 0.013
in 2-butanone, 308.25 K | 0.0171
in 2-butanone, 313.15 K | 0.0222
in 2-butanone, 318.15 K | 0.0288
in 2-butanone, 323.65 K | 0.038
in 2-pentanone, 272.15 K | 0.00169
in 2-pentanone, 278.15 K | 0.00255
in 2-pentanone, 283.15 K | 0.00353
in 2-pentanone, 288.15 K | 0.00485
in 2-pentanone, 293.15 K | 0.00657
in 2-pentanone, 298.15 K | 0.00881
in 2-pentanone, 303.35 K | 0.0119
in 2-pentanone, 308.25 K | 0.0155
in 2-pentanone, 313.15 K | 0.0202
in 2-pentanone, 318.15 K | 0.026
in 2-pentanone, 323.65 K | 0.0345
in acetone, 272.15 K | 0.00112
in acetone, 278.15 K | 0.00165
in acetone, 283.15 K | 0.00225
in acetone, 288.15 K | 0.00304
in acetone, 293.15 K | 0.00407
in acetone, 298.15 K | 0.0054
in acetone, 303.35 K | 0.00718
in acetone, 308.25 K | 0.00926
in acetone, 313.15 K | 0.0119
in acetone, 318.15 K | 0.0152
in acetone, 323.65 K | 0.02
in acetonitrile, 272.15 K | 0.000235
in acetonitrile, 278.15 K | 0.000356
in acetonitrile, 283.15 K | 0.000495
in acetonitrile, 288.15 K | 0.000687
in acetonitrile, 293.15 K | 0.000931
in acetonitrile, 298.15 K | 0.00126
in acetonitrile, 303.35 K | 0.0017
in acetonitrile, 308.25 K | 0.00224
in acetonitrile, 313.15 K | 0.00291
in acetonitrile, 318.15 K | 0.0038
in acetonitrile, 323.65 K | 0.00503
in ethanol, 272.15 K | 0.000414
in ethanol, 277.95 K | 0.000587
in ethanol, 283.15 K | 0.000795
in ethanol, 288.15 K | 0.00105
in ethanol, 293.05 K | 0.00137
in ethanol, 298.15 K | 0.00179
in ethanol, 303.15 K | 0.00232
in ethanol, 308.05 K | 0.00294
in ethanol, 312.35 K | 0.00362
in ethanol, 318.15 K | 0.00472
in ethanol, 323.15 K | 0.0059
in ethyl acetate, 272.15 K | 0.00135
in ethyl acetate, 278.15 K | 0.00195
in ethyl acetate, 283.15 K | 0.00261
in ethyl acetate, 288.15 K | 0.00345
in ethyl acetate, 293.15 K | 0.00453
in ethyl acetate, 298.15 K | 0.00588
in ethyl acetate, 303.35 K | 0.00767
in ethyl acetate, 308.25 K | 0.00977
in ethyl acetate, 313.15 K | 0.0123
in ethyl acetate, 318.15 K | 0.0155
in ethyl acetate, 323.65 K | 0.0198
in ethyl formate, 272.15 K | 0.00082
in ethyl formate, 278.15 K | 0.00117
in ethyl formate, 283.15 K | 0.00155
in ethyl formate, 288.15 K | 0.00204
in ethyl formate, 293.15 K | 0.00266
in ethyl formate, 298.15 K | 0.00343
in ethyl formate, 303.35 K | 0.00444
in ethyl formate, 308.25 K | 0.00562
in ethyl formate, 313.15 K | 0.00703
in ethyl formate, 318.15 K | 0.00881
in ethyl formate, 323.65 K | 0.0112
in isobutanol, 272.15 K | 0.000707
in isobutanol, 277.95 K | 0.00106
in isobutanol, 283.15 K | 0.00151
in isobutanol, 288.15 K | 0.00209
in isobutanol, 293.05 K | 0.00283
in isobutanol, 298.15 K | 0.00386
in isobutanol, 303.15 K | 0.00517
in isobutanol, 308.05 K | 0.00684
in isobutanol, 312.35 K | 0.00863
in isobutanol, 318.15 K | 0.0117
in isobutanol, 323.15 K | 0.0152
in isopentanol, 272.15 K | 0.000677
in isopentanol, 277.95 K | 0.000996
in isopentanol, 283.15 K | 0.00139
in isopentanol, 288.15 K | 0.00189
in isopentanol, 293.05 K | 0.00254
in isopentanol, 298.15 K | 0.00341
in isopentanol, 303.15 K | 0.0045
in isopentanol, 308.05 K | 0.00587
in isopentanol, 312.35 K | 0.00738
in isopentanol, 318.15 K | 0.00989
in isopentanol, 323.15 K | 0.0126
in isopropanol, 272.15 K | 0.000462
in isopropanol, 277.95 K | 0.00066
in isopropanol, 283.15 K | 0.000904
in isopropanol, 288.15 K | 0.0012
in isopropanol, 293.05 K | 0.00158
in isopropanol, 298.15 K | 0.00208
in isopropanol, 303.15 K | 0.00269
in isopropanol, 308.05 K | 0.00344
in isopropanol, 312.35 K | 0.00424
in isopropanol, 318.15 K | 0.00557
in isopropanol, 323.15 K | 0.00702
in methanol, 272.15 K | 0.000246
in methanol, 277.95 K | 0.000355
in methanol, 283.15 K | 0.000486
in methanol, 288.15 K | 0.000655
in methanol, 293.05 K | 0.000865
in methanol, 298.15 K | 0.00114
in methanol, 303.15 K | 0.0015
in methanol, 308.05 K | 0.00192
in methanol, 312.35 K | 0.00238
in methanol, 318.15 K | 0.00315
in methanol, 323.15 K | 0.004
in methyl acetate, 272.15 K | 0.00103
in methyl acetate, 278.15 K | 0.00146
in methyl acetate, 283.15 K | 0.00192
in methyl acetate, 288.15 K | 0.00251
in methyl acetate, 293.15 K | 0.00326
in methyl acetate, 298.15 K | 0.0042
in methyl acetate, 303.35 K | 0.00541
in methyl acetate, 308.25 K | 0.00679
in methyl acetate, 313.15 K | 0.00848
in methyl acetate, 318.15 K | 0.0106
in methyl acetate, 323.65 K | 0.0134
in n-butanol, 272.15 K | 0.000605
in n-butanol, 277.95 K | 0.000859
in n-butanol, 283.15 K | 0.00116
in n-butanol, 288.15 K | 0.00154
in n-butanol, 293.05 K | 0.00201
in n-butanol, 298.15 K | 0.00262
in n-butanol, 303.15 K | 0.00338
in n-butanol, 308.05 K | 0.0043
in n-butanol, 312.35 K | 0.00528
in n-butanol, 318.15 K | 0.00691
in n-butanol, 323.15 K | 0.00862
in n-pentanol, 272.15 K | 0.000647
in n-pentanol, 277.95 K | 0.000925
in n-pentanol, 283.15 K | 0.00126
in n-pentanol, 288.15 K | 0.00169
in n-pentanol, 293.05 K | 0.00221
in n-pentanol, 298.15 K | 0.00292
in n-pentanol, 303.15 K | 0.00378
in n-pentanol, 308.05 K | 0.00483
in n-pentanol, 312.35 K | 0.00597
in n-pentanol, 318.15 K | 0.00787
in n-pentanol, 323.15 K | 0.00988
in n-propanol, 272.15 K | 0.000513
in n-propanol, 277.95 K | 0.000735
in n-propanol, 283.15 K | 0.000998
in n-propanol, 288.15 K | 0.00133
in n-propanol, 293.05 K | 0.00174
in n-propanol, 298.15 K | 0.00229
in n-propanol, 303.15 K | 0.00296
in n-propanol, 308.05 K | 0.0038
in n-propanol, 312.35 K | 0.00468
in n-propanol, 318.15 K | 0.00613
in n-propanol, 323.15 K | 0.00773
in toluene, 272.15 K | 0.00015
in toluene, 278.15 K | 0.00023
in toluene, 283.15 K | 0.000323
in toluene, 288.15 K | 0.000449
in toluene, 293.15 K | 0.000618
in toluene, 298.15 K | 0.000839
in toluene, 303.35 K | 0.00114
in toluene, 308.25 K | 0.00151
in toluene, 313.15 K | 0.00198
in toluene, 318.15 K | 0.0026
in toluene, 323.65 K | 0.00346
